# Test results: US20260356841A1, “HETEROCYCLIC PYRIDINONE COMPOUNDS AS TRIGGERING RECEPTOR EXPRESSED ON MYELOID CELLS 2 AGONISTS AND METHODS OF USE” (Vigil Neuroscience, Inc., priority 2023, published 2026)
# Molecular target: T1, human TREM2 (Homo sapiens, UniProt Q9NZC2)
# T1 construct: expressed in transfected cells; host or cells: HEK293T (HEK293T-hTREM2 cells)
# Assay: TREM2 agonist potency by cellular phosphorylation of Spleen Tyrosine Kinase (Syk), AlphaLisa, HEK293T-hTREM2 cells
# Assay type: cell-based
# Settings: hTREM2 EC50 Data (HEK293 Cells); Syk phosphorylation, AlphaLisa; read-out: hTREM2 EC50
# Summary of the method: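 HEK293T cells co-expressing human TREM2 and DAP12, plated 20–24 h before use. Compounds applied 45 min at room temperature in assay buffer, then cells lysed and phospho-Syk quantified by AlphaLisa. Percent activation from a standard curve; EC50 from a four-parameter variable-slope fit.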
# T1 sequence (Q9NZC2 19-230): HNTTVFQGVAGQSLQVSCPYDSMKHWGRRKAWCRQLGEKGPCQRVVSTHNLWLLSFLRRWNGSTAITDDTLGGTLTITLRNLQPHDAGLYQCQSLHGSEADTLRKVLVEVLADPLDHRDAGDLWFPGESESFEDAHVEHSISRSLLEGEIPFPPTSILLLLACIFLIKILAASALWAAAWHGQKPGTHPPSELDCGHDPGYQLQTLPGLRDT
# T1 sequence (O43914 22-113 partner): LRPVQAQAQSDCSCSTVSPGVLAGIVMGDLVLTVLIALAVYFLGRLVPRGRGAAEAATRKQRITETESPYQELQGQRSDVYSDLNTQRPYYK
row,EC50,Structure (SMILES)
1,< 0.1 µM,"CNn1cc([C@H]2C[C@@H](c3nc(C45CC(C(F)(F)F)(C4)C5)c4cc(C(F)(F)F)c(C)nc4n3)CCO2)ccc1=O [Example 338, 1-(methylamino)-5-((2R,4S)-4-(7-methyl-6-(trifluoromethyl)-4-(3-(trifluoromethyl)bicyclo-[1.1.1]pentan-1-yl)pyrido[2,3-d]pyrimidin-2-yl)tetrahydro-2H-pyran-2-yl)pyridin-2 (1H)-one]"
2,> 0.5 µM,Cc1nc2nc([C@@H]3CCO[C@H](c4ccc(=O)n(C)c4)C3)nc(-c3cc(F)c(C(F)(F)F)cc3F)c2nc1C [Example 349]
3,< 0.1 µM,Cc1nc2nc([C@H]3CCO[C@@H](c4ccc(=O)n(C)c4)C3)nc(-c3cc(F)c(C(F)(F)F)cc3F)c2nc1C [Example 350]
4,< 0.1 µM,Cc1nc2nc([C@H]3CCO[C@@H](c4ccc(=O)[nH]c4)C3)nc(C34CC(C(F)(F)F)(C3)C4)c2nc1C(F)(F)F [Example 355]

# Further lines, the molecule ahead of its results:
row,Structure (SMILES),EC50
1,Cc1nc2nc([C@@H]3CCO[C@@H](c4ccc(=O)n(C)c4)C3)nc(-c3cc(F)c(C(F)(F)F)cc3F)c2nc1C [Example 348],> 0.5 µM
2,Cc1noc(-c2cc3c(C45CC(C(F)(F)F)(C4)C5)nc([C@H]4CCO[C@@H](c5ccc(=O)n(C(F)F)c5)C4)nc3nc2C)n1 [Example 352],> 0.5 µM
3,[2H]C([2H])([2H])c1nc2nc(C3CCOC(c4ccc(=O)n(C([2H])([2H])[2H])c4)C3)nc(C34CC(C(F)(F)F)(C3)C4)c2nc1C([2H])([2H])[2H] (centres unmarked) [Example 353],< 0.1 µM
4,[2H]C([2H])([2H])n1cc([C@H]2CN(c3nc(C45CC(C(F)(F)F)(C4)C5)c4nc(C)c(C)nc4n3)C[C@@H](C)O2)ccc1=O [Example 354],< 0.1 µM
